Test results from publication PMC4488150, “Structure-Based Optimization and Biological Evaluation of Pancreatic Lipase Inhibitors as Novel Potential Antiobesity Agents” (Natural Products and Bioprospecting, 2015).
“Also recorded” adds a separate entry of the source.

Experiments:
[1] = molecular target: T1, Porcine pancreatic lipase (Sus scrofa, UniProt P00591); assay: In vitro pancreatic lipase inhibitory activity (p-nitrophenyl butyrate hydrolysis); type: biochemical; details: for IC50: read-out: IC50 against pancreatic lipase; for pancreatic lipase inhibitory activity compared with compound A1: compared with compound A1 (best inhibitor of the first series)
T1 sequence (P00591 1-450): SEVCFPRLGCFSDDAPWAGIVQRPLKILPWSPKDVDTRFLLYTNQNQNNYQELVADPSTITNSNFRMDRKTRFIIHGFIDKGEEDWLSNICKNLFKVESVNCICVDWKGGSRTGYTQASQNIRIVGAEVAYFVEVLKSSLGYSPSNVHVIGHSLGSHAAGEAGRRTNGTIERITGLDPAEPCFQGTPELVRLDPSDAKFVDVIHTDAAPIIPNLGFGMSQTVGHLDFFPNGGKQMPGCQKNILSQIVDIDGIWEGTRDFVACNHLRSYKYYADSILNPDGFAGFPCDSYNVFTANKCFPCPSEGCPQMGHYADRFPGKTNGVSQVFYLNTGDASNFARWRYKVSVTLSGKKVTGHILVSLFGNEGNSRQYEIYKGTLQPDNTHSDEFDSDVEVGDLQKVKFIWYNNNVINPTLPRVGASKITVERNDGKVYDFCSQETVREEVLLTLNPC
Procedure: Compounds A1–A54 were then evaluated for their bioactivity to inhibit pancreatic lipase. Each test was performed in triplicate, and the IC50 values were calculated based on the amount of inhibitor required to produce 50 % inhibition compared with the DMSO vehicle control.
Porcine pancreatic lipase was used to evaluate the inhibitory activity of the monascus pigment derivatives. p-Nitrophenyl butyrate ([…]) was used as the substrate. First, an enzyme-buffer solution was prepared by adding 30 μL of lipase solution (in 10 mM morpholinepropanesulfonic acid (MOPS) and 1 mM EDTA, pH 6.8) to 850 μL of Tris buffer (100 mM Tris–HCl and 5 mM CaCl2, pH 7.0). Pigment solutions were prepared by dissolving each pigment in a mixture (1:1) of ethanol and distilled water. Subsequently, 100 μL of the pigment solution was mixed with 880 μL of the enzyme-buffer solution. Following incubation of the enzyme-pigment mixture for 15 min at 37 °C, 20 μL of the substrate solution (10 mM p-NPB in dimethyl formamide) was added. Enzymatic reactions were conducted for 15 min at 37 °C. The hydrolysis of p-NPB to p-nitrophenol was monitored at 400 nm using a spectrophotometer. One unit of the enzyme was defined as the amount required to liberate 1 μmol of p-nitrophenol under standard assay conditions.

[2] = tested on: HFD-induced C57BL/6 J obese mice; assay: High-fat diet-induced obese mice (diet-induced obesity); type: in vivo; details: for cholesterol (CHO) level / triglyceride (TG) level: blood after final dose
Procedure: Male C57BL/6 J mice were obtained from Beijing HFK Bioscience Co., Ltd. (Certificate No. SCXK 2014-0004), housed in a temperature- and humidity-controlled room with a 12-hour light/dark cycle, and allowed free access to solid food and tap water for one week prior to the experiments. All of the procedures were performed in accordance with the Institute Ethical Committee for Experimental Animal Use of the Yunnan Province and the Kunming Institute of Botany.
The kits used to determine the triglyceride (TG) and cholesterol (CHO) levels were obtained from the Zhongsheng Beikong Bioengineering Institute.
Three-week-old C57BL/6 J male mice were fed a normal diet for 1 week for acclimatization. Randomly selected mice were fed a normal diet or a 45 % fat diet. After 4 months, the body weights of the mice in the obese group were 20 % higher than those in the control group. These obese mice were randomly divided into the following three groups: the model (45 % fat diet), orlistat (45 % fat diet + orlistat) and Compound groups (45 % fat diet + compound C1). The drugs (50 mg/kg orlistat or 100 mg/kg compound C1) were intragastrically administered for 1 month. During this period, the mice were weighed once every 3 days. Following administration of the final dose, blood samples were collected via the orbital vein after ethyl ether exposure, and epididymal fat was isolated. TG and CHO levels were measured using kits. The ratio of epididymal fat to body weight represents the amount of white adipose tissue (WAT) of each mouse (normalized to the body weight).
Student’s t test was used for comparisons between groups, as indicated in Fig. 2. #p < 0.05, ## or **p < 0.01.

[3] = tested on: HFD-induced C57BL/6 J obese mice; assay: as above; type: in vivo; details: up to 400 mg/kg, data not shown
[4] = compound C1 100 mg/kg, 100 mg/kg

SMILES: CC(C)=CC[C@@]12C=C(COC(=O)CCCCCc3ccccc3)C[C@@H]1OC2=O [Compound A1, ((1R,5S)-1-(3-methylbut-2-en-1-yl)-7-oxo-6-oxabicyclo[3.2.0]hept-2-en-3-yl)methyl-6-phenylhexanoate]
- IC50 [1]: 83 nM

SMILES: CCCCCC[C@@H](OC(=O)[C@](OC)(c1ccccc1)C(F)(F)F)C1=C[C@@]2(CC=C(C)C)C(=O)O[C@H]2C1 [Compound B1, (R)-(R)-1-((1R,5S)-1-(3-methylbut-2-en-1-yl)-7-oxo-6-oxabicyclo[3.2.0]hept-2-en-3-yl)heptyl-3,3,3-trifluoro-2-methoxy-2-phenylpropanoate]
- IC50 [1]: 30 nM

SMILES: CCCCCCCCN(CCCCCCC)C(=O)C1=C[C@@]2(CC=C(C)C)C(=O)O[C@H]2C1 [Compound C1, (1R,5S)-N-heptyl-1-(3-methylbut-2-en-1-yl)-N-octyl-7-oxo-6-oxabicyclo[3.2.0]hept-2-ene-3-carboxamide]
- IC50 [1]: 14 nM
- pancreatic lipase inhibitory activity, fold higher than that of vibralactone ([1]; relative to vibralactone): more than 3000 fold
- in vivo activity compared with orlistat ([2]; C1 100 mg/kg vs orlistat 50 mg/kg): lower activity than that of orlistat
- body weight ([2]; compound C1 100 mg/kg, 33 days, intragastric, vs HFD model group, 100 mg/kg): gradually decreased; also recorded: weight loss; also recorded: significantly low; also recorded: significantly lower
- HFD-induced obesity ([2]; compound C1 100 mg/kg, 33 days, intragastric, 100 mg/kg): significantly decreased
- cholesterol (CHO) level [2, 4]: significantly decreased
- triglyceride (TG) level [2, 4]: significantly decreased; also recorded: significantly reduced
- fat weight (epididymal white adipose tissue, normalized to body weight) ([2]; compound C1 100 mg/kg, one month, 100 mg/kg): gradually decreased; also recorded: significantly decreased
- toxicity or adverse behavioral effects [3]: without toxicity or adverse behavioral effects

SMILES: CCCCCCCCN(CCCCCCCC)C(=O)C1=C[C@@]2(CC=C(C)C)C(=O)O[C@H]2C1 [Compound C2, (1R,5S)-1-(3-methylbut-2-en-1-yl)-N,N-dioctyl-7-oxo-6-oxabicyclo[3.2.0]hept-2-ene-3-carboxamide]
- pancreatic lipase inhibitory activity compared with compound A1 [1]: higher inhibitory activities than compound A1

SMILES: CCCCCCCN(CCCCCCC)C(=O)C1=C[C@@]2(CC=C(C)C)C(=O)O[C@H]2C1 [Compound C3, (1R,5S)-N,N-diheptyl-1-(3-methylbut-2-en-1-yl)-7-oxo-6-oxabicyclo[3.2.0]hept-2-ene-3-carboxamide]
- pancreatic lipase inhibitory activity compared with compound A1 [1]: higher inhibitory activities than compound A1

SMILES: CCCCCCCCCCC[C@@H](C[C@@H]1OC(=O)[C@H]1CCCCCC)OC(=O)[C@H](CC(C)C)NC=O [orlistat, reference compound]
- cholesterol (CHO) level ([2]; orlistat 50 mg/kg): significantly decreased
- triglyceride (TG) level ([2]; orlistat 50 mg/kg): significantly decreased
- fat weight (epididymal white adipose tissue, normalized to body weight) ([2]; orlistat 50 mg/kg, one month): gradually decreased; also recorded: significantly decreased
- body weight ([2]; orlistat 50 mg/kg, one month, intragastric): gradually decreased

SMILES: CC(C)=CC[C@@]12C=C(CO)C[C@@H]1OC2=O [vibralactone, reference compound]
- IC50 [1]: 47300 nM
